Patent US20240116877A1, “KIT KINASE INHIBITORS AND METHODS OF USE THEREOF” (Deciphera Pharmaceuticals, LLC, priority 2021, published 2024)
Where two headings read alike, the source gives them in different places.

Tests used:
Ba/F3 KIT mutant cells = experiment: Ba/F3 mutant KIT Cell Proliferation Assays (resazurin); type: cell-based; conditions: Mus musculus, BaF3
Outline: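 IC50 values come from resazurin fluorescence (ex 540, em 600) after 5 h dye exposure, added as a 440 μM solution. Cells were IL-3-independent Ba/F3 expressing mutant KIT from a lentiviral vector, puromycin-selected.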

c-KIT kinase (uKIT) = c-KIT kinase (uKIT) (Homo sapiens (Human), UniProt P10721); experiment: Biochemical Assay for uKIT (coupled pyruvate kinase/lactate dehydrogenase assay); conditions: Inhibition of biochemical activity of uKIT kinase; 1 mM ATP
Outline: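 Continuous coupled PK/LDH assay following NADH oxidation at 340 nm for 6 h at 30° C, with 16 nM or 4.36 nM KIT (two constructs), 0.7 mg/mL PE4Y, 1 mM ATP, pH 7.5. Rates from the 2-3 h window converted to percent inhibition versus controls; IC50 fitted.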

GIST 430 cells = experiment: GIST 430 Cell Proliferation Assay (resazurin); type: cell-based; conditions: Homo sapiens; GIST430 cell proliferation
Outline: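 Five thousand cells per well were exposed to serially diluted compound in complete growth medium for 115 h at 37 degrees Celsius, 5% CO2. Resazurin was then added for a further 5 h, fluorescence read at 540 nm excitation/600 nm emission, and IC50 values calculated.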

[1] = Ba/F3 KIT AYdup-V654A mutant cell proliferation, read-out: AYdup-V654A IC50
[2] = Ba/F3 KIT exon11del-V654A mutant cell proliferation, read-out: exon11del-V654A IC50
[3] = Ba/F3 KIT exon11del-Y823D mutant cell proliferation, read-out: exon11del-Y823D IC50
[4] = Ba/F3 KIT AYdup mutant cell proliferation, read-out: AYdup IC50
[5] = Ba/F3 KIT AYdup-D816G mutant cell proliferation, read-out: AYdup-D816G IC50

Chain of c-KIT kinase (uKIT) (P10721 other isoform, or with tags, fused parts or gaps): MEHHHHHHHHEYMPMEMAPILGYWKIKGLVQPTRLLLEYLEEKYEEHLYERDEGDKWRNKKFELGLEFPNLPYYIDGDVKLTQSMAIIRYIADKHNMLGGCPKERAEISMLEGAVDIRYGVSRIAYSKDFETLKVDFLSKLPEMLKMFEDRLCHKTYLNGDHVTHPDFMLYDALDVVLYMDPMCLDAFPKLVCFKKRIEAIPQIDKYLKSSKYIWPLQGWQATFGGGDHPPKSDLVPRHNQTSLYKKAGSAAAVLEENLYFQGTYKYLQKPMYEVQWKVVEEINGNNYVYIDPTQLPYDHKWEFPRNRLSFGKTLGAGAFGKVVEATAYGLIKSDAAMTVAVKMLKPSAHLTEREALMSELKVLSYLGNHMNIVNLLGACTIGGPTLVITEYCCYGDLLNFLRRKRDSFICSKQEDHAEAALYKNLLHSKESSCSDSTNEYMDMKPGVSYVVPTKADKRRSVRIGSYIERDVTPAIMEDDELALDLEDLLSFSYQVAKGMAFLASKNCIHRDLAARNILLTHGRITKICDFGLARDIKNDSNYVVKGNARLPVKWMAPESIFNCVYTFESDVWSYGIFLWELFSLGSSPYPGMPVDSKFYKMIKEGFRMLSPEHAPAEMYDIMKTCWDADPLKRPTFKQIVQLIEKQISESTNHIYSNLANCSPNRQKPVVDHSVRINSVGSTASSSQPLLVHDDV

Compound | IC50 (Ba/F3 KIT mutant cells; [1]) [nM] | IC50 (Ba/F3 KIT mutant cells; [2]) [nM] | IC50 (Ba/F3 KIT mutant cells; [3]) [nM] | IC50 (c-KIT kinase (uKIT)) [nM] | IC50 (Ba/F3 KIT mutant cells; [4]) [nM] | IC50 (Ba/F3 KIT mutant cells; [5]) [nM] | IC50 (GIST 430 cells) [nM]
COCCOc1cc(F)c2c(Nc3ccc(NC(=O)COCC4CC4)cc3)ncnc2c1 [Example 57] | 100 to 1000 | 10 to 100 | > 1000 | 100 to 1000 |  |  | 10 to 100
COCCOc1cc(F)c2c(Nc3ccc(NC(=O)C4(C(=O)NCCC(C)(C)F)CC4)cc3)ncnc2c1 [Example 75] | 100 to 1000 | 10 to 100 | > 1000 | 10 to 100 |  |  | 100 to 1000
COCCOc1cc(F)c2c(Nc3ccc(NC(=O)CC(=O)N4C5CCC4CC5)cc3)ncnc2c1 [Example 188] | 100 to 1000 | 100 to 1000 | 100 to 1000 | 10 to 100 |  |  | 100 to 1000
COCCOc1cc(F)c2c(Nc3ccc(NC(=O)COCC4CCCC4)cc3)ncnc2c1 [Example 56] | 10 to 100 | 10 to 100 | 10 to 100 | ≤ 10 |  |  | ≤ 10
COCCOc1cc(F)c2c(Nc3ccc(NC(=O)CC(=O)N4CCCC[C@@H]4C(F)(F)F)cc3)ncnc2c1 [Example 170] | 10 to 100 | 10 to 100 | 10 to 100 | 10 to 100 |  |  | 10 to 100
CC(C)(F)CCNC(=O)Nc1ccc(Nc2ncnc3cc(OC4CCOCC4)cc(F)c23)cc1 [Example 138] | 10 to 100 | ≤ 10 | 100 to 1000 | ≤ 10 | ≤ 10 | 10 to 100 | 10 to 100
COCCOc1cc(F)c2c(Nc3ccc(NC(=O)CC(=O)NC[C@@H]4CCCO4)cc3)ncnc2c1 [Example 121] | 100 to 1000 | 10 to 100 | > 1000 | 100 to 1000 |  |  | 100 to 1000
COCCOc1cc(F)c2c(Nc3ccc(NC(=O)CC(=O)NCC4CCOCC4)cc3)ncnc2c1 [Example 78] | 100 to 1000 | 10 to 100 | > 1000 | 100 to 1000 |  |  | 100 to 1000
COCCOc1cc(F)c2c(Nc3ccc(NC(=O)OCCC(C)(C)C#N)cc3)ncnc2c1 [Example 46] | 100 to 1000 | 10 to 100 | 100 to 1000 | ≤ 10 | ≤ 10 | 10 to 100 | 10 to 100

Continued, in another order:

IC50 (Ba/F3 KIT mutant cells; [1]) [nM] | IC50 (Ba/F3 KIT mutant cells; [2]) [nM] | IC50 (Ba/F3 KIT mutant cells; [3]) [nM] | IC50 (c-KIT kinase (uKIT)) [nM] | IC50 (Ba/F3 KIT mutant cells; [4]) [nM] | IC50 (Ba/F3 KIT mutant cells; [5]) [nM] | Compound | IC50 (GIST 430 cells) [nM]
10 to 100 | 10 to 100 | ≤ 10 | ≤ 10 |  |  | COCCOc1cc(OC)c2c(Nc3ccc(NC(=O)NCCC(C)(C)F)cc3)ncnc2c1 [Example 181] | 10 to 100
10 to 100 | 10 to 100 | > 1000 | 10 to 100 |  |  | COCCOc1cc(F)c2c(Nc3ccc(NC(=O)CC(=O)NCC(F)(F)F)cc3)ncnc2c1 [Example 127] | 10 to 100
10 to 100 | 10 to 100 | 10 to 100 | 10 to 100 | ≤ 10 | 10 to 100 | COC(C)(C)CCNC(=O)Nc1ccc(Nc2ncnc3cc(OCCN4CCOCC4)cc(F)c23)cc1 [Example 37] | ≤ 10
10 to 100 | ≤ 10 | 10 to 100 | 10 to 100 | ≤ 10 | 10 to 100 | COCCOc1cc(F)c2c(Nc3ccc(NC(=O)CC(=O)NC(C)(C)C(F)(F)F)cc3)ncnc2c1 [Example 130] | 10 to 100
10 to 100 | 10 to 100 | 10 to 100 | 10 to 100 |  |  | COCCOc1cc(F)c2c(Nc3ccc(NC(=O)CC(=O)N4CCCC(C)(C)C4)cc3)ncnc2c1 [Example 166] | 10 to 100
10 to 100 | 10 to 100 | 10 to 100 | ≤ 10 | ≤ 10 | 10 to 100 | COCCOc1cc(F)c2c(Nc3ccc(NC(=O)CC4CCC(F)(F)CC4)cc3)ncnc2c1 [Example 41] | 10 to 100
10 to 100 | ≤ 10 | 100 to 1000 | ≤ 10 |  | 10 to 100 | COCCOc1cc(F)c2c(Nc3ccc(NC(=O)N[C@H]4CC[C@@H](C(F)(F)F)CC4)cc3)ncnc2c1 [Example 36] | 10 to 100
10 to 100 | ≤ 10 | 10 to 100 | 10 to 100 | ≤ 10 | 10 to 100 | COCCOc1cc(F)c2c(Nc3ccc(NC(=O)CC(=O)N(C)C(C)(C)C)cc3)ncnc2c1 [Example 143] | ≤ 10
10 to 100 | 10 to 100 | 10 to 100 | 10 to 100 | ≤ 10 | 10 to 100 | COCCOc1cc(F)c2c(Nc3ccc(NC(=O)CNC(=O)CC(C)(C)C)cc3)ncnc2c1 [Example 102] | ≤ 10
